“Also recorded” adds a separate entry of the source.
Legend:
BMMCs = format: cell-based, mouse
[1] = system: CHO-K1 (Chinese hamster ovary cell); conditions: CHO-K1, 3.6 or 36 μM, 2 days
Method: (§1) To analyze the effect of GST-N19 on intracellular functions of HRF/TCTP, the indicated cells were cultured in the absence (−) or presence of the indicated concentrations of GST or GST-N19 for 2 days, and live cells were counted in the presence of Trypan blue. […] The usual dose of HRF to stimulate basophils is 1.6-5 μM (Langdon, et al., J Leukoc Biol 84, 1151 (October, 2008)). Apoptosis was induced by growth factor withdrawal, IL-3 depletion, in BMMCs for 3 days and by 800 nM H2O2 in CHO-K1 cells for 2 days, and live cells were counted.

CHO-K1 cells = conditions: 800 nM H2O2, 2 days
Method: as §1

C57BL/6 mice = test: OVA-induced mast cell-dependent airway inflammation model; format: in vivo, mouse
Method: Mice were sensitized with OVA (10 μg in 0.1 ml saline) at days 0, 7, 14, 21, 28, and 35. Sensitized mice were challenged with OVA (20 μg in 20 μl saline) at days 40, 43 and 46. Some mice were pretreated with GST, GST-N19 (400 μg in PBS), or N19 peptide (40 μg in 2% DMSO-containing PBS) 15 minutes before OVA challenge. Twenty-four hours after the last challenge, lung function in response to methacholine was tested using FlexiVent system (SCIREQ Scientific Respiratory Equipment). Mice were sacrificed and plasma, BAL fluids, and lung tissues were collected. Cells in BAL fluids were counted, and specific cell numbers were calculated after May-Giemsa staining of Cytospin preparations. Immunofluorescence microscopy was performed on membrane-permeabilized and non-permeabilized lung tissues. For staining of lung tissues by staining of H&E and periodic acid-Schiff (PAS), lung tissues were fixed with formalin and embedded in paraffin. For measurement of cytokine levels in lung tissues, lung homogenates were prepared (Oyoshi et al., Immunol. 120:303 (2007)) and cytokines quantified by ELISA. HRF in lung homogenates and plasma was SDS-PAGE and immunoblotting with anti-HRF Ab (Santa Cruz Biotechnology).
Asthma is a type 2 helper T cell-driven, chronic inflammatory lung disease (Wills-Karp, Annu Rev Immunol 17, 255 (1999)). To study HRF involvement in allergic airway inflammation, an airway inflammation model was utilized, in which mast cells are implicated in amplifying antigen-dependent chronic inflammation (Williams, et al., J Exp Med 192, 455 (Aug. 7, 2000)). C57BL/6 mice were first sensitized with OVA (10 μg) at days 0, 7, 14, 21, 28 and 35. At days 40, 43 and 46, mice were intranasally challenged with OVA (20 μg) or PBS. Some mice were intranasally pretreated with GST or GST-N19 (400 μg) before every OVA challenge. Twenty-four hours after the last challenge, mice were sacrificed and BAL fluids and lung tissues were collected. Lung tissues were homogenized.

BALB/c mice [2] = test: OVA-induced food allergy (diarrhea) model; format: in vivo, mouse
Method: BALB/c mice were intraperitoneally sensitised with OVA (50 μg/mouse) plus alum on days 0 and 14. From day 28, mice were intragastrically challenged with OVA (50 mg) three times a week (Brandt, E. B. et al. J. Clin. Invest. 112:1666-1677 (2003)). Before each challenge, mice were starved for 3 h, then pretreated intragastrically with GST or GST-N19 (100 μg), and rested for 30 min. The development of diarrhoea was visually monitored for 90 min after OVA challenge.
To evaluate the role of HRF in food allergy, an OVA-induced food allergy model developed by Brandt et al. (Brandt et al., J. Clin. Invest. 112:1666 (2003)) was employed. BALB/c mice that were 6-8-week-old were intraperitoneal (i.p.) immunized twice on days 0 and 14 with 50 μg of OVA in the presence of alum. From day 28, mice were intragastrically challenged with OVA (50 mg) three times a week. Before each challenge, mice were starved for 3 hours, then pretreated with GST or GST-N19 (100 μg/mouse) intragastrically, and rested for 30 minutes. Control mice were sensitized and challenged, but not pretreated. The development of diarrhea was monitored for ninety minutes after OVA challenge. […] Sections of jejunum and ileum from mice treated as in FIG. 14 were stained with chloroacetate esterase. […] There was a good correlation shown between the number of mucosal mast cells and the number of diarrhea occurrence during 10 OVA challenges (FIG. 15D). Increased serum IgE and IgG1, but not IgG2a, levels (FIG. 16) and increased expression of mRNAs encoding Th2 cytokines (IL-4, IL-5, IL-13) and proinflammatory cytokines (IL-6, IL-1β) in the intestines were observed (data not shown). In this Th2-skewed model, the amount of HRF in plasma from diarrhea-induced mice, as measured by immunoblotting, was increased by about 2 fold compared to PBS control mice (FIG. 16E). […] However, HRF-reactive IgE was not detected under the study conditions.

HRF/IgE binding = test: Competition ELISA of IgE binding to GST-mHRF-coated wells; design: species or system mouse
Method: To identify an inhibitor of HRF/Ig interactions to dissect the extracellular function (═HRF function as a cytokine) separate from the intracellular functions in vivo settings, the major Ig-interacting HRF sequence was studied as a specific inhibitor of HRF/Ig interactions. IgE molecules were incubated in GST-mHRF-coated wells in the presence or absence (−) of the indicated concentrations of competitors, GST-N19, GST-mHRF or mHRF-His6 for 2 hours. After incubation, bound-IgE was detected by incubation with biotinylated anti-mouse IgE mAb, followed by streptavidin-HRP. […] By contrast, none of the shorter mHRF peptides tested (residues 1-6, 1-12, 5-19, and 9-19) inhibited HRF/IgE binding. GST-N19 inhibited HRF/IgG binding as well.

BALB/c mice [3] = test: Aspergillus fumigatus allergen-induced airway inflammation model; format: in vivo, mouse; conditions: intranasal 200 ug/50 ul, 30 min before each immunization from the second week

Substance: GST-N19: GST fusion protein encoding the first 19 residues of mHRF; inhibitor of HRF/Ig interactions
- Effects on mast cell growth and apoptosis (BMMCs): absence of GST-N19 effects
- Viability or proliferation [1]: did not affect
- Live cells after induced apoptosis (CHO-K1 cells): not affected
- Inflammatory cells, particularly eosinophils and neutrophils, in BAL fluids (C57BL/6 mice; 400 μg before every OVA challenge): reduced
- Inflammatory cells and goblet cell hyperplasia in the lung (C57BL/6 mice; H&E and PAS staining): reduced
- HRF in plasma (C57BL/6 mice; OVA-immunized/OVA-challenged mice): reduced
- Airway inflammation (C57BL/6 mice; intranasal pretreatment before each OVA challenge): abrogated
- Production of IL-5 in lung tissues (C57BL/6 mice; lung homogenates, ELISA): drastically decreased
- Production of IL-13 in lung tissues (C57BL/6 mice; lung homogenates, ELISA): drastically decreased; also recorded: suppression
- HRF-reactive IgG levels in plasma (C57BL/6 mice; mouse, in vivo): not affected
- OVA-specific IgE levels in plasma (C57BL/6 mice; mouse, in vivo): not affected
- OVA-specific IgG1 levels in plasma (C57BL/6 mice; mouse, in vivo): not affected
- OVA-specific IgG2a levels in plasma (C57BL/6 mice; mouse, in vivo): not affected
- Airway hyper-responsiveness (AHR) (C57BL/6 mice; response to methacholine): inhibited
- Development of diarrhea (BALB/c mice [2]; 100 μg/mouse intragastrically before each OVA challenge, vs GST-pretreated or PBS-treated control mice): prevented in a much greater percentage of mice; also recorded: prevents
- Increase in mucosal mast cells (BALB/c mice [2]; jejunum and ileum sections): inhibited
- Increase in serosal mast cells (BALB/c mice [2]; jejunum and ileum sections): inhibited
- Mastocytosis in the small intestine (BALB/c mice [2]; mouse, in vivo): inhibits
- Plasma level of HRF-reactive IgG (BALB/c mice [2]; mouse, in vivo): not affected
- Plasma level of total IgE (BALB/c mice [2]; mouse, in vivo): not affected
- Plasma level of total IgG1 (BALB/c mice [2]; mouse, in vivo): not affected
- Plasma level of total IgG2a (BALB/c mice [2]; mouse, in vivo): not affected
- Potency of inhibition of IgE binding relative to full-length HRF competitors (HRF/IgE binding): potency similar to that shown by GST-mHRF and mHRF-His6
- Inhibition of IgE binding to immobilized GST-mHRF (HRF/IgE binding; competitor incubated 2 hours): inhibited
- Airway inflammation (BALB/c mice [3]): efficacy of GST-N19 was confirmed; also recorded: inhibits
